Laboratory results from ChEMBL document CHEMBL3507680, “University of Dundee, Gates Library screen for HepG2 cell viability”.

Assay: Human HepG2 cell viability assay in 384 well format
Type: toxicity, cell-based
Design: dose 125 nL, time 70.5 hour; concentration not given beside the values
Conditions: HepG2 cells, read-out: Inhibition

| Compound | cytotoxicity at 70.5 h [%] |
| --- | --- |
| CC(=O)N(C)Cc1ccc(OCc2cccs2)cc1 | -2.58 |
| COc1ccc2oc(C(C)NC(=O)NCC(C)(C)C(N)=O)c(C)c2c1 (stereo unspecified) | 23.4 |
| O=C(C[C@@H]1COC[C@H]2CN(C(=O)c3cccnc3)C[C@@H]12)N1CCCC1 | 1.64 |
| Cn1ccc(CN2CCC3(CC2)CC(Nc2cnccn2)CO3)n1 (stereo unspecified) | -1.03 |
| Cc1nc(C)c(Cn2ccnc2-c2cc(CN(C)C)cs2)s1 | 2.87 |
| CCCn1cc(-c2cc(C(=O)N(C)C)c3cccc(C)c3n2)cn1 | -7.56 |
| CC(C)OCCN1CCc2cncnc2C1 | 4.2 |
| Cc1ccc(CN2CCc3nnc(CN4CCCC4=O)n3CC2)o1 | -3.79 |
| CC(C)N1CCN(C(=O)Nc2cnc3c(cnn3C(C)C)c2)CC1 | 1.68 |
| CCOc1ccc(CC(=O)Nc2cnccc2SCCCO)cc1 | -6.43 |
| O=C(c1cnccn1)N1CCN(Cc2cccnc2)c2ncccc2C1 | -8.24 |
| CN1CCOC[C@H]1c1nc(-c2cccc(F)c2)c[nH]1 | 2.61 |
| O=C(c1cnc(C2CC2)nc1O)N1CCN(Cc2ccccc2F)CC1 | 0.38 |
| Cc1cc(C)c(C(=O)N2CCOC(c3cccs3)C2)c(=O)[nH]1 (stereo unspecified) | -6.92 |
| COc1cc(N2CCCC(c3nccn3Cc3cccnc3)C2)ncn1 (stereo unspecified) | -14.5 |
| CC(=O)NCc1nccnc1C1CCN(C(=O)c2cc[nH]n2)CC1 | -6.68 |
| O=C1NCC2(CCCN(C(=O)Nc3ccc4occc4c3)CC2)O1 (stereo unspecified) | -1.24 |
| O=C(NC[C@H]1OC[C@@H](NC2CCC(F)(F)CC2)[C@@H]1O)C1CC1 | -7.04 |
| CN(C)C(=O)CCCn1ccc(NCc2ccc(C#N)cc2)n1 | -2.31 |

| Compound | cytotoxicity at 70.5 h [%] |
| --- | --- |
| COc1ccc(C(=O)NS(=O)(=O)c2cncc(Br)c2)cc1OC | -3.31 |
| Cn1cc(C(=O)N2CCN(c3ccccc3)CC2)ccc1=O | -6.86 |
| CC(C)CCN1C2(CCN(C(=O)C3(C)CC3)C2)c2ccccc2S1(=O)=O (stereo unspecified) | -9.44 |
| Cn1cc(N2CC[C@@H]3CN(Cc4ccncc4)C[C@H]3C2=O)cn1 | 2.33 |
| CCn1cc(CN2CCCC(CO)(CCc3ccccc3)C2)c(C)n1 (stereo unspecified) | -7.26 |
| CN(C)CCN1CCO[C@H]2CN(C(=O)c3ccsc3)C[C@H]21 | -6.87 |
| Cc1ccccc1NC1CCN(C(=O)CCc2ccco2)CC1 | 1.41 |
| Cc1nn(C)c(C)c1C1CCCN1c1ncnc2c1CCC2 (stereo unspecified) | 1.18 |
| CC(C)NCc1nc(-c2ccc3c(c2)OCO3)c[nH]1 | -11.7 |
| COC(=O)c1cccn1C1CCN(C(=O)c2cc(F)ccc2F)CC1 | -1.51 |
| CCc1ccc2nc(C)cc(C(=O)N[C@@H]3CNC[C@H]3O)c2c1 | 25.1 |
| CC(C)OCCOCc1cccc(NC(=O)N2CCCC(O)C2)c1 (stereo unspecified) | -9.87 |
| O=C(O)C(c1ccc(Cl)c(F)c1)N1CCN(Cc2ccccn2)CC1 (stereo unspecified) | -2.57 |
| COc1cccc(CN2CCCC(c3nn(C)c4nccnc34)C2)c1 (stereo unspecified) | 14.8 |
| Cn1cnnc1CCC(=O)N1CCCC(OCc2cccnc2)C1 (stereo unspecified) | -0.989 |
| CC(=O)NCCC(=O)NCc1ccc(Br)cc1Cl | -0.899 |
| c1cc(-c2cn[nH]c2)ncc1CN1CCCCC1 | -6.79 |
| Cc1cc2c(=O)n3c(nc2s1)CCN(C(=O)c1cnn(C)c1C)CC3 | -14.8 |
| Fc1ccc(CN2CCCC3(CCN(Cc4ncc[nH]4)C3)C2)cc1F (stereo unspecified) | -0.549 |

| Compound | cytotoxicity at 70.5 h [%] |
| --- | --- |
| CSCCN(C)C(=O)C1(c2ccc(F)cc2F)CCOCC1 | -0.975 |
| Cc1ccc(CCC(=O)N2CCCC(n3cncn3)C2)c(C)c1 (stereo unspecified) | -3.58 |
| CCOCC(O)CN1CCN(C(=O)CC(C)C)CC1 (stereo unspecified) | -7.21 |
| COc1cccc(CN2CCC(c3nccn3C(C)C)CC2)c1 | -13.1 |
| CNS(=O)(=O)c1cccc(CNC(=O)c2c(C)nn(C)c2C)c1 | -3.24 |
| Cc1cc(C(=O)N2CCOC(c3ccc(Cl)c(Cl)c3)C2)[nH]n1 (stereo unspecified) | -8.67 |
| COc1cccc2c(C)c(C(=O)N3CCNCC3C(N)=O)[nH]c12 (stereo unspecified) | -7.8 |
| CNC(=O)[C@@H]1COC[C@H]2CN(C(=O)c3cccc(OC)c3)C[C@H]21 | 9.55 |
| CCn1cc(CN2CCCN(C(=O)c3ccccc3OC)CC2)cn1 | -15.6 |
| Cc1ccc(C(C(=O)O)N(C)CCN2CCOCC2)c(F)c1 (stereo unspecified) | -9.66 |
| CCOc1cc2c(cc1CNC(Cc1cccs1)c1nccs1)OCO2 (stereo unspecified) | 1.33 |
| CN1CCOC(CNC(=O)C2(c3ccccc3)CCC2)C1 (stereo unspecified) | -5.1 |
| Cc1nc(C)n(CC2CCCN(Cc3nnc(C4CC4)o3)C2)n1 (stereo unspecified) | -7.21 |
| O=S(=O)(NCc1ccc(S(=O)(=O)N2CCCC2)s1)c1cc(Cl)cc(Cl)c1 | -21.3 |
| COC(=O)CCNC(=O)c1nnn(-c2ccccc2)c1C(F)(F)F | 0.121 |
| O=C1O[C@@H]2CN(c3ccccn3)C[C@@H]2N1CCCc1ccc(F)cc1 | -14.3 |
| O=C(CN1CCCC(c2ccc(C(=O)O)cc2)C1)NC1CC1 (stereo unspecified) | -5.55 |
| COCCC1(CNC(=O)NCC2CCCN(C)C2)CCCC1 (stereo unspecified) | -1.2 |
